Laboratory results: patent US9738607B2, “Scalable process for the preparation of Sorafenib tosylate ethanol solvate and Sorafenib tosylate form III” (F.I.S.—FABBRICA ITALIANA SINTETICI S.P.A, priority 2015, dated 2017)

Assays:
[1] = Stability study of Sorafenib hemi-tosylate monohydrate under four humidity/temperature conditions, XRPD; type: physicochemical
Procedure: Four different humidity/temperature conditions were selected for this study: • Humidity (60% RH) at room temperature, • High humidity (94% RH) at room temperature, • Accelerated conditions of ICH guidelines (40° C.-70% RH), • 80° C. under vacuum.
Karl-Fischer and DSC/TGA analyses confirmed that Sorafenib hemi-tosylate is a monohydrate (water content 3.9% for KF and 2.7% for TGA—3.1% calc. for a monohydrate). This form was previously characterized in WO2009/092070 but, as Karl-Fischer and TGA were not performed, the presence of water in this crystalline form was not mentioned. […] However, at 80° C. under vacuum, traces of SORAFENIB free base were detected after almost three months.

[2] = Stability studies of Sorafenib tosylate form III (humidity/temperature storage); type: physicochemical; conditions: form III obtained from methanol solvate
Procedure: Stability studies of the free Sorafenib tosylate form III were already performed. These studies indicate that form III remained stable 3 months under accelerated conditions of ICH guideline (40° C.-70% RH) and less than 7 months at RT under 94% RH, while it remained stable at least 7 month at RT under 60% RH.
As the stability study of Sorafenib tosylate form III was performed with Sorafenib tosylate form III obtained from Sorafenib tosylate methanol solvate, only a minor difference in behavior could be possible with this new solid.

SMILES	time remained stable ([1]; 60% RH at room temperature)	time remained stable ([1]; 70% RH at 40° C.)	time remained stable ([1]; 94% RH at room temperature)	crystalline changes by XRPD ([1]; after 88 days at 80° C. under vacuum)	crystalline changes by XRPD ([1]; after 119 days at 60% RH at room temperature)	crystalline changes by XRPD ([1]; after 119 days at 70% RH at 40° C.)	crystalline changes by XRPD ([1]; after 119 days at 94% RH at room temperature)	time form III remained stable ([2]; RT under 60% RH)	time form III remained stable ([2]; RT under 94% RH)	time form III remained stable ([2]; accelerated conditions of ICH guideline (40° C.-70% RH))
CNC(=O)c1cc(Oc2ccc(NC(=O)Nc3ccc(Cl)c(C(F)(F)F)c3)cc2)ccn1.Cc1ccc(S(=O)(=O)O)cc1 [Sorafenib hemi-tosylate]	at least four	at least four	at least four	traces of Sorafenib free base were observed	No crystalline changes were detected	No crystalline changes were detected	No crystalline changes were detected	–	–	–
CNC(=O)c1cc(Oc2ccc(NC(=O)Nc3ccc(Cl)c(C(F)(F)F)c3)cc2)ccn1.Cc1ccc(S(=O)(=O)O)cc1 [Sorafenib tosylate form III, 4-[4-({[4-chloro-3-(trifluoromethyl)phenyl]carbamoyl}amino)phenoxy]-N-methylpyridine-2-carboxamide 4-methylbenzenesulfonate (1:1)]	–	–	–	–	–	–	–	at least 7 month	less than 7 months	3 months
